Assay results: patent publication US20050192340A1, “Simvastatin formulations and methods of making same” (priority 2003, published 2005)

Assay: In vitro hydrolysis of simvastatin formulations under simulated gastric conditions (dissolution in 0.1N HCl, HPLC)
Assay type: physicochemical
Conditions: 37° C.
Method: Generally, the simvastatin formulations were prepared by heating menthol to about 60° C. while stirring and adding a surface active agent (either TWEEN® or Poloxamer) and sodium ducosate or sodium lauryl sulfate. The mixture was stirred until all the components dissolved to form a melt. Thereafter, the melt was cooled to about 50° C., simvastatin was added during stirring until dissolved, the mixture was cooled to room temperature, and dispensed into capsules. After about an hour the liquid in the capsule had gelled. Each capsule was filled with enough formulation to have a dose of 20 mg of simvastatin.
Each formulation was tested by dissolution in 50 ml of 0.1N HCl at 37° C. with stirring. […] It was determined that the retention times for the simvastatin hydroxyl acid was 3.6 minutes and simvastatin lactone was 5.7 minutes.

- % hydrolyzed Simvastatin (0.1N HCl, 60 min, weight % hydrolyzed simvastatin from the initial simvastatin amount): 0%
- % converted to hydroxyl acid (0.1N HCl, 60 min, weight % of the total dissolved simvastatin in the open hydroxy acid form): 0%
- % Dissolved 60 min 0.1 N HCl (50 ml 0.1N HCl, stirring, total dissolved simvastatin (closed lactone + open hydroxy acid form), 20 mg capsule): 0%
SMILES: CCC(C)(C)C(=O)O[C@H]1C[C@@H](C)C=C2C=C[C@H](C)[C@H](CCC3C[C@@H](O)CC(=O)O3)[C@H]21 (stereo partly drawn) [Simvastatin 100%]
